Earlier results in patent US20240325430A1, “MULTIPLE FOLATE FORMULATION AND USE THEREOF” (JAYMAC PHARMACEUTICAL LLC, priority 2012, published 2024).

Test system: hydrocephalic Texas rats
Settings: injected into hydrocephalic Texas rats during fetal development; J Neuropathol Exp Neurol 2009

In the case of Nc1nc2ncc(CNc3ccc(C(=O)N[C@@H](CCC(=O)O)C(=O)O)cc3)nc2c(=O)[nH]1 [folic acid], the incidence of hydrocephalus is given as “significant increase”.
